Test results reported in patent publication US6677431B2, “Design, preparation, and properties of antibacterial β-peptides” (The Trustees of the University of Pennsylvania, priority 1999, dated 2004).

Assay: Peptide binding to phospholipid bilayers by CD, SOPC vesicles
Details: for helix formation on phosphocholin vesicles (POPC and SOPC): CD, model of mammalian cell membrane

Compound | helix formation on phosphocholin vesicles (POPC and SOPC) | Kd (SOPC LUV)
CC(C)[C@@H](CC(N)=O)NC(=O)C[C@H](CCCCN)NC(=O)C[C@H](C)NC(=O)C[C@@H](NC(=O)C[C@H](CCCCN)NC(=O)C[C@H](C)NC(=O)C[C@@H](NC(=O)C[C@H](CCCCN)NC(=O)C[C@H](C)NC(=O)C[C@@H](NC(=O)C[C@H](CCCCN)NC(=O)C[C@H](C)N)C(C)C)C(C)C)C(C)C [Peptide 1] | does not show any formation of helix | 
CC(C)[C@@H](CC(N)=O)NC(=O)C[C@H](CCCCN)NC(=O)C[C@H](C)NC(=O)C[C@@H](NC(=O)C[C@H](CCCCN)NC(=O)C[C@H](C)NC(=O)C[C@@H](NC(=O)C[C@H](CCCCN)NC(=O)C[C@H](C)NC(=O)C[C@@H](NC(=O)C[C@H](CCCCN)NC(=O)C[C@H](C)NC(=O)C[C@@H](NC(=O)C[C@H](CCCCN)NC(=O)C[C@H](C)N)C(C)C)C(C)C)C(C)C)C(C)C [Peptide 2] | shows increase of helix content | 15 µM
